How the values were obtained:
[1] = tested on: PGE2; assay: Inhibition of PGE2 production by DPG; conditions: concentrations of DPG contained in Theraflex
[2] = tested on: LTB4; assay: Inhibition of LTB4 production by DPG; conditions: concentrations of DPG contained in Theraflex

CC1(C)[C@@H](O[C@H]2O[C@H](C(=O)[O-])[C@@H](O)[C@H](O)[C@H]2O[C@@H]2O[C@H](C(=O)[O-])[C@@H](O)[C@H](O)[C@H]2O)CC[C@]2(C)[C@H]3C(=O)C=C4[C@@H]5C[C@@](C)(C(=O)O)CC[C@]5(C)CC[C@@]4(C)[C@]3(C)CC[C@@H]12.[K+].[K+] [DPG, dipotassium glycyrrhizinate]
inhibition of production of PGE2 [1]: greater than 50% | inhibition of production of LTB4 [2]: greater than 50%

Reference: patent publication US8337869B2, “Analgesic cream” (priority 2007, dated 2012)
